From ChEMBL document CHEMBL5500324, “The potential of marine-derived piperazine alkaloids: Sources, structures and bioactivities” (Eur J Med Chem, 2024)
Values after ≈ are worked out from the molar mass of the structure shown.

Tests used:
PANC-1 = assay: Cytotoxicity against human PANC-1 cells assessed as reduction in cell viability; format: functional, cell-based
L1210 = assay: Cytotoxicity against mouse L1210 cells assessed as reduction in cell growth; format: functional; settings: read-out: ED50 (the source's name)
MCF7 [1] = assay: Cytotoxicity against human MCF7 cells assessed as reduction in cell viability; format: functional, cell-based
[2] = Cytotoxicity against mouse FM3A tsFT210 cells assessed as inhibition of cell growth; format: functional, cell-based
U-937 = assay: Cytotoxicity against human U-937 cells assessed as reduction in cell viability; format: functional, cell-based
PC-3 = assay: Cytotoxicity against human PC-3 cells assessed as reduction in cell viability; format: functional, cell-based
A549 [3] = assay: Cytotoxicity against human A549 cells assessed as reduction in cell viability by MTT assay; format: functional, cell-based
HGC-27 = assay: Cytotoxicity against human HGC-27 cells assessed as reduction in cell viability by MTT assay; format: functional, cell-based
UMUC3 = assay: Cytotoxicity against human UMUC3 cells assessed as reduction in cell viability by MTT assay; format: functional, cell-based
[4] = Antitumor activity against human A375.S2 cells assessed as cell growth inhibition; format: functional, cell-based
HeLa [5] = assay: Antitumor activity against human HeLa cells assessed as inhibition of cell growth by MTT assay; format: functional, cell-based
P388 [6] = assay: Antitumor activity against mouse P388 cells assessed as cell growth inhibition; format: functional, cell-based
A549 [7] = assay: Anticancer activity against human A549 cells assessed as reduction in cell growth; format: functional, cell-based
HL-60 [8] = assay: Anticancer activity against human HL-60 cells assessed as inhibition of cell growth measured after 24 hrs by CCK-8 assay; format: functional, cell-based; settings: HL-60, 24 h
Bel-7402 = assay: Anticancer activity against human Bel-7402 cells assessed as reduction in cell growth measured for 24 hrs by MTT assay; format: functional, cell-based; settings: Bel-7402, 24 h
P388 [9] = assay: Cytotoxicity against mouse P388 cells assessed as cell growth inhibition; format: functional; settings: read-out: ED50 (the source's name)
BC = assay: Cytotoxicity against human BC cells assessed as inhibition of cell growth; format: functional, cell-based
HCT-116 = assay: Antiproliferative activity against human HCT-116 cells assessed as reduction in cell viability incubated for 24 hrs by MTT assay; format: functional, cell-based; settings: HCT-116, 24 h
KB = assay: Cytotoxicity against human KB cells assessed as inhibition of cell growth; format: functional, cell-based
QG-56 = assay: Cytotoxicity against human QG-56 cells assessed as reduction in cell growth incubated for 24 hrs by MTT assay; format: functional, cell-based; settings: QG-56, 24 h
DU-145 = assay: Cytotoxicity against human DU-145 cells assessed as cell growth inhibition measured after 48 hrs by MTT assay; format: functional, cell-based; settings: DU-145, 48 h
SF-268 = assay: Cytotoxicity against human SF-268 cells assessed as reduction in cell viability incubated for 72 hrs by SRB assay; format: functional, cell-based; settings: SF-268, 72 h
HepG2 = assay: Cytotoxicity against human HepG2 cells assessed as reduction in cell viability incubated for 72 hrs by SRB assay; format: functional, cell-based; settings: HepG2, 72 h
HeLa [10] = assay: Cytotoxicity against human HeLa cells assessed as reduction in cell viability measured for 24 hrs by MTT assay; format: functional, cell-based
K562 = assay: Antiproliferative activity against human K562 cells assessed as reduction in cell growth incubated for 72 hrs by MTT assay; format: functional, cell-based; settings: K562, 72 h
HL-60 [11] = assay: Antiproliferative activity against human HL-60 cells assessed as reduction in cell growth incubated for 72 hrs by MTT assay; format: functional, cell-based; settings: HL-60, 72 h
BGC-823 = assay: Cytotoxicity against human BGC-823 cells assessed as reduction in cell growth measured after 72 hrs by MTT assay; format: functional, cell-based; settings: BGC-823, 72 h
MCF7 [12] = assay: Cytotoxicity against human MCF7 cells assessed as reduction in cell growth measured after 72 hrs by MTT assay; format: functional, cell-based; settings: MCF7, 72 h
MKN-1 = assay: Cytotoxicity against human MKN-1 cells assessed as reduction in cell viability; format: functional, cell-based

`COc1ccc([C@H]2SS[C@@]34C[C@]5(O)[C@H](Cl)C=C[C@@H](O)[C@@H]5ON3C(=O)[C@@H]2NC4=O)c(O)c1OC` gave an IC50 (PANC-1) of 0.02 µM.
Work on `CN1C[C@H](c2c[nH]c3cc(Br)ccc23)NC[C@H]1c1c[nH]c2cc(Br)ccc12` yielded an EC50 (L1210) of 10 mg/L (≈ 20.5 µM).
In the case of `COc1ccc2c3c([nH]c2c1)[C@H](C=C(C)C)N1C(=O)[C@]2(O)CCCN2C(=O)[C@@]1(O)[C@H]3OC`, the IC50 (MCF7 [1]) is reported as 7.6 µM.
Work on `CS[C@]1(CO)C(=O)N2C3C(=CC=CC3O)C[C@@]2(SC)C(=O)N1C` (stereo not given in full) yielded an IC50 [2] of 89.8 mg/L (≈ 252 µM), an IC50 (U-937) of 0.52 µM and an IC50 (PC-3) of 15.9 µM.
Work on `CC(C)C[C@H]1NC(=O)[C@H](CCC(N)=O)n2c1nc1ccccc1c2=O` yielded an IC50 (A549 [3]) of 6 µM, an IC50 (HGC-27) of 6.2 µM and an IC50 (UMUC3) of 7.2 µM.
Compound `CC(C)=CCC/C(C)=C/COc1ccc(C[C@@H]2NC(=O)[C@H](C)NC2=O)cc1` has an IC50 [4] of 4.6 µM, an IC50 (HeLa [5]) of 3.4 µM and an IC50 (P388 [6]) of 2.86 µM. It also gave an IC50 (A549 [7]) of 1.37 µM, an IC50 (HL-60 [8]) of 1.73 µM and an IC50 (Bel-7402) of 3.2 µM.
Compound `CS[C@H]1C(=O)N2[C@H]3Nc4ccccc4[C@@]3(c3c[nH]c4ccccc34)C[C@]2(SC)C(=O)N1C` has an EC50 (P388 [9]) of 20 mg/L (≈ 43 µM).
In the case of `COc1cc2c(cc1O)CCNC21CS[C@@H]2c3c(OC(C)=O)c(C)c4c(c3[C@H](COC1=O)N1[C@@H]2[C@H]2c3c(cc(C)c(OC)c3O)C[C@@H]([C@@H]1C#N)N2C)OCO4` (stereo not given in full), the IC50 (BC) is reported as 0.0025 µM, the IC50 (HCT-116) is reported as 0.0004 µM and the IC50 (KB) is reported as 0.034 nM. It also gave an IC50 (QG-56) of 0.0018 µM and an IC50 (DU-145) of 0.00066 µM.
`C=CC(C)(C)c1[nH]c2ccccc2c1/C=C1\NC(=O)[C@@]2(CC[C@@]3(O)c4cc(OC)cc(O)c4C(=O)c4c(O)cc(C)c2c43)NC1=O` showed an IC50 (SF-268) of 12.5 µM and an IC50 (HepG2) of 15 µM.
Work on `C=CC(C)(C)[C@@]12C[C@H]3C(=O)N[C@@H](Cc4ccc(O)cc4)C(=O)N3[C@@H]1N([C@H]1O[C@]3(C[C@@H]1NC(=O)/C=C/C(C)CC(C)CCCCCC)[C@@H]1O[C@@H]1[C@](O)(CC(C)=O)[C@@H]1O[C@@H]13)c1ccccc12` (stereo not given in full) yielded an IC50 (HeLa [10]) of 17.7 µM, an IC50 (K562) of 19.9 µM and an IC50 (HL-60 [11]) of 12.1 µM. It also gave an IC50 (BGC-823) of 16.6 µM and an IC50 (MCF7 [12]) of 8 µM.
For `CO[C@H]1c2c([nH]c3ccccc23)[C@H](C=C(C)C)N2C(=O)[C@@H]3CCCN3C(=O)[C@@]12O`, the IC50 (MCF7 [1]) was 10.8 µM and the IC50 (MKN-1) was 20.7 µM.
